From PubChem BioAssay (NCI) come the findings set out here.

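All cell lines were grown in 96-well plates and treated with compound for 48 hours. Definition used: TGI = concentration required for complete inhibition of growth.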

The test system of the first experiment is NCI-H226 lung. The experiment in a line: NCI anticancer screen, dose series, 48 h.
`CC1(C)OCC(COC(=O)C=[N+]=[N-])O1` (centres undefined) registered a TGI above 100 µM.

In the next experiment the test system is RPMI-8226 leukemia. In words: NCI anticancer screen, dose series, 48 h.
`CC(=O)OCC(C)C1=C(O)C(=O)C2(C)C/C=C(/C)CC/C=C(\C)CCC(O)C(C)CCC12` (centres undefined) returned a TGI of 39.2 µM.

With `CC(C)OP(=O)(OC(C)C)c1c(Nc2ccccc2)n[nH]c1N`, the TGI was above 100 µM.

Regarding `CC1(C)OCC(COC(=O)C=[N+]=[N-])O1` (centres undefined), the TGI is above 100 µM.

In a further experiment the test system is K-562 leukemia. The experiment in a line: NCI anticancer screen, dose series, 48 h.
`CC(=O)OCC(C)C1=C(O)C(=O)C2(C)C/C=C(/C)CC/C=C(\C)CCC(O)C(C)CCC12` (centres undefined) returned a TGI of 53.4 µM.

`CC(C)OP(=O)(OC(C)C)c1c(Nc2ccccc2)n[nH]c1N`: the TGI is above 100 µM.

Consider `CC(C)(C)C1=C(Br)C(Br)(C(C)(C)C)OP1(=O)c1ccccc1` (centres undefined), for which the TGI is above 100 µM.

A further experiment has as its system KM12 colon. The experiment in a line: NCI anticancer screen, dose series, 48 h.
The compound `CC(=O)OCC(C)C1=C(O)C(=O)C2(C)C/C=C(/C)CC/C=C(\C)CCC(O)C(C)CCC12` (centres undefined) showed a TGI of 28.7 µM.

As for `CC(C)OP(=O)(OC(C)C)c1c(Nc2ccccc2)n[nH]c1N`, the TGI is above 100 µM.

`CC(C)(C)C1=C(Br)C(Br)(C(C)(C)C)OP1(=O)c1ccccc1` (centres undefined) yielded a TGI above 100 µM.

With `CC1(C)OCC(COC(=O)C=[N+]=[N-])O1` (centres undefined), the TGI was above 100 µM.

A further experiment deals with U251 CNS. The experiment in a line: NCI anticancer screen, dose series, 48 h.
For the compound `CC(=O)OCC(C)C1=C(O)C(=O)C2(C)C/C=C(/C)CC/C=C(\C)CCC(O)C(C)CCC12` (centres undefined), the TGI turned out to be 30.8 µM.

The compound `CC(C)OP(=O)(OC(C)C)c1c(Nc2ccccc2)n[nH]c1N` had a TGI above 100 µM.

On to `CC(C)(C)C1=C(Br)C(Br)(C(C)(C)C)OP1(=O)c1ccccc1` (centres undefined), for which the TGI was above 100 µM.

In turn, `CC1(C)OCC(COC(=O)C=[N+]=[N-])O1` (centres undefined) returned a TGI above 100 µM.

Another experiment relates to SK-OV-3 ovarian. The experiment in a line: NCI anticancer screen, dose series, 48 h.
Compound `CC(C)OP(=O)(OC(C)C)c1c(Nc2ccccc2)n[nH]c1N` came in with a TGI above 100 µM.

With `CC(C)(C)C1=C(Br)C(Br)(C(C)(C)C)OP1(=O)c1ccccc1` (centres undefined), the TGI is above 100 µM.

On to `CC1(C)OCC(COC(=O)C=[N+]=[N-])O1` (centres undefined), for which the TGI is above 100 µM.

The next experiment relates to MDA-MB-435. In words: NCI anticancer screen, dose series, 48 h.
In turn, `CC(=O)OCC(C)C1=C(O)C(=O)C2(C)C/C=C(/C)CC/C=C(\C)CCC(O)C(C)CCC12` (centres undefined) registered a TGI of 32.2 µM.

`CC(C)OP(=O)(OC(C)C)c1c(Nc2ccccc2)n[nH]c1N` gave a TGI above 100 µM.

`CC(C)(C)C1=C(Br)C(Br)(C(C)(C)C)OP1(=O)c1ccccc1` (centres undefined) gave a TGI above 100 µM.

In the case of `CC1(C)OCC(COC(=O)C=[N+]=[N-])O1` (centres undefined), the TGI was above 100 µM.

In the next experiment the test system is CCRF-CEM leukemia. In words: NCI anticancer screen, dose series, 48 h.
The compound `CC(=O)OCC(C)C1=C(O)C(=O)C2(C)C/C=C(/C)CC/C=C(\C)CCC(O)C(C)CCC12` (centres undefined) registered a TGI of 70.9 µM.

The compound `CC(C)OP(=O)(OC(C)C)c1c(Nc2ccccc2)n[nH]c1N` yielded a TGI above 100 µM.

On to `CC1(C)OCC(COC(=O)C=[N+]=[N-])O1` (centres undefined), for which the TGI was above 100 µM.

In the next experiment the test system is IGROV1 ovarian. The experiment in a line: NCI anticancer screen, dose series, 48 h.
The compound `CC(=O)OCC(C)C1=C(O)C(=O)C2(C)C/C=C(/C)CC/C=C(\C)CCC(O)C(C)CCC12` (centres undefined) came in with a TGI of 33 µM.

As to `CC(C)OP(=O)(OC(C)C)c1c(Nc2ccccc2)n[nH]c1N`, the TGI was above 100 µM.

On to `CC(C)(C)C1=C(Br)C(Br)(C(C)(C)C)OP1(=O)c1ccccc1` (centres undefined), for which the TGI is above 100 µM.

In the case of `CC1(C)OCC(COC(=O)C=[N+]=[N-])O1` (centres undefined), the TGI was above 100 µM.

The test system of a further experiment is HOP-62 NSCLC. The experiment in a line: NCI anticancer screen, dose series, 48 h.
On to `CC(=O)OCC(C)C1=C(O)C(=O)C2(C)C/C=C(/C)CC/C=C(\C)CCC(O)C(C)CCC12` (centres undefined), for which the TGI came to 32.8 µM.

Take `CC(C)OP(=O)(OC(C)C)c1c(Nc2ccccc2)n[nH]c1N`: the TGI is above 100 µM.

`CC(C)(C)C1=C(Br)C(Br)(C(C)(C)C)OP1(=O)c1ccccc1` (centres undefined) returned a TGI above 100 µM.

The compound `CC1(C)OCC(COC(=O)C=[N+]=[N-])O1` (centres undefined) yielded a TGI above 100 µM.

A further experiment relates to HL-60(TB) leukemia. In words: NCI anticancer screen, dose series, 48 h.
For `CC(=O)OCC(C)C1=C(O)C(=O)C2(C)C/C=C(/C)CC/C=C(\C)CCC(O)C(C)CCC12` (centres undefined), the TGI came to 66.7 µM.

`CC(C)(C)C1=C(Br)C(Br)(C(C)(C)C)OP1(=O)c1ccccc1` (centres undefined) yielded a TGI above 100 µM.

`CC1(C)OCC(COC(=O)C=[N+]=[N-])O1` (centres undefined) returned a TGI above 100 µM.

The next experiment relates to EKVX NSCLC. The experiment in a line: NCI anticancer screen, dose series, 48 h.
Compound `CC(=O)OCC(C)C1=C(O)C(=O)C2(C)C/C=C(/C)CC/C=C(\C)CCC(O)C(C)CCC12` (centres undefined) returned a TGI of 32 µM.

Compound `CC(C)OP(=O)(OC(C)C)c1c(Nc2ccccc2)n[nH]c1N` registered a TGI above 100 µM.

With `CC(C)(C)C1=C(Br)C(Br)(C(C)(C)C)OP1(=O)c1ccccc1` (centres undefined), the TGI was above 100 µM.

Regarding `CC1(C)OCC(COC(=O)C=[N+]=[N-])O1` (centres undefined), the TGI was above 100 µM.

In a further experiment the test system is MDA-MB-231 breast. The experiment in a line: NCI anticancer screen, dose series, 48 h.
The compound `CC(=O)OCC(C)C1=C(O)C(=O)C2(C)C/C=C(/C)CC/C=C(\C)CCC(O)C(C)CCC12` (centres undefined) came in with a TGI of 30.4 µM.

For the compound `CC(C)OP(=O)(OC(C)C)c1c(Nc2ccccc2)n[nH]c1N`, the TGI was above 100 µM.

`CC1(C)OCC(COC(=O)C=[N+]=[N-])O1` (centres undefined) showed a TGI above 100 µM.

The next experiment concerns UACC-62 melanoma. The experiment in a line: NCI anticancer screen, dose series, 48 h.
The compound `CC(=O)OCC(C)C1=C(O)C(=O)C2(C)C/C=C(/C)CC/C=C(\C)CCC(O)C(C)CCC12` (centres undefined) yielded a TGI of 36.8 µM.

The compound `CC(C)OP(=O)(OC(C)C)c1c(Nc2ccccc2)n[nH]c1N` registered a TGI above 100 µM.

In turn, `CC(C)(C)C1=C(Br)C(Br)(C(C)(C)C)OP1(=O)c1ccccc1` (centres undefined) came in with a TGI above 100 µM.

In the case of `CC1(C)OCC(COC(=O)C=[N+]=[N-])O1` (centres undefined), the TGI was above 100 µM.

Another experiment relates to COLO 205 colon. The experiment in a line: NCI anticancer screen, dose series, 48 h.
Consider `CC(=O)OCC(C)C1=C(O)C(=O)C2(C)C/C=C(/C)CC/C=C(\C)CCC(O)C(C)CCC12` (centres undefined), for which the TGI was 31.1 µM.

`CC(C)OP(=O)(OC(C)C)c1c(Nc2ccccc2)n[nH]c1N` registered a TGI above 100 µM.

Consider `CC(C)(C)C1=C(Br)C(Br)(C(C)(C)C)OP1(=O)c1ccccc1` (centres undefined), for which the TGI was above 100 µM.

Compound `CC1(C)OCC(COC(=O)C=[N+]=[N-])O1` (centres undefined) displayed a TGI above 100 µM.

The next experiment has as its system M14 melanoma. The experiment in a line: NCI anticancer screen, dose series, 48 h.
Regarding `CC(=O)OCC(C)C1=C(O)C(=O)C2(C)C/C=C(/C)CC/C=C(\C)CCC(O)C(C)CCC12` (centres undefined), the TGI came to 33.8 µM.

`CC(C)OP(=O)(OC(C)C)c1c(Nc2ccccc2)n[nH]c1N` displayed a TGI above 100 µM.

Regarding `CC(C)(C)C1=C(Br)C(Br)(C(C)(C)C)OP1(=O)c1ccccc1` (centres undefined), the TGI is above 100 µM.
